# Where a name gives a salt, the structure may show the parent alone.
# Columns and labels:
# [1] = tested on: MCF-7 cells; test: Human mammary cancer (MCF-7) growth inhibition test, neutral red staining; format: cell-based; settings: MCF7, medium with 10^-8M estradiol, 72 hours culture with sample
# Experimental: Human mammary cancer (MCF-7) growth inhibition test;
# Each 0.1 ml of MCF-7 cells which had been prepared to 5 x 10^4/ml using a medium (referred to as Medium B hereinafter) prepared by adding 10% bovine fetal serum, 10^-8M estradiol (manufactured by Sigma), 100 units/ml penicillin and 100 µg/ml streptomycin to medium RPMI1640 was distributed in each well of 96 well-microtiter plate. The plate was cultured at 37 °C for 20 hours in a CO2 gas incubator, each 0.05 ml of samples (test compounds) which had been appropriately diluted with Medium B was added thereto and the mixture was cultured at 37 °C for 72 hours in a CO2 gas incubator. Supernatant was removed, each 0.1 ml of Medium B containing 0.02% neutral red was added to the residue, the mixture was cultured at 37 °C for 1 hour in a CO2 gas incubator and the cells were stained. IC50 was calculated according to the same manner as that in Test 2.
# [2] = tested on: HeLaS3 cells; test: Human uterine cervix carcinoma (HeLaS3) growth inhibition test, neutral red staining; format: cell-based; settings: HeLa S3, 72 hours culture with sample, absorbance at 550 nm
# Experimental: Human uterine cervix carcinoma (HeLaS3) growth inhibition test;
# Each 0.1 ml of HeLaS3 cells which had been prepared to 3 x 10^4/ml using a medium (referred to as Medium A hereinafter) consisted of MEM medium, 2 mM glutamine and 10% bovine fetal serum was distributed in each well of 96 well-microtiter plate. The plate was cultured at 37 °C for 20 hours in a CO2 gas incubator, each 0.05 ml of samples (test compounds) which had been appropriately diluted with Medium A was added thereto and the mixture was cultured at 37 °C for 72 hours in a CO2 gas incubator. Supernatant was removed, each 0.1 ml of Medium A containing 0.02% neutral red was added to the residue, the mixture was cultured at 37 °C for 1 hour in a CO2 gas incubator and the cells were stained. Supernatant was removed and the residue was washed once with saline. Then, the pigment was extracted with 0.001N hydrochloric acid/30% ethanol and the absorbance at 550 nm was measured with a microplatereader.
Structure (SMILES),IC50 [1] [µM],IC50 [2] [µM]
"Nc1ccc(-c2cc(=O)c3c(N)ccc(Cl)c3o2)cc1 [Compound 2, 5-Amino-2-(4-aminophenyl)-8-chloro-4H-1-benzopyran-4-one]",0.37,3.2
"Nc1ccc(-c2cc(=O)c3c(N)c(Cl)cc(Cl)c3o2)cc1 [Compound 3, 5-Amino-2-(4-aminophenyl)-6,8-dichloro-4H-1-benzopyran-4-one]",22,33
"Nc1ccc(-c2cc(=O)c3c(N)ccc(Br)c3o2)cc1 [Compound 5, 5-Amino-2-(4-aminophenyl)-8-bromo-4H-1-benzopyran-4-one]",–,6.1
"Nc1ccc(-c2cc(=O)c3c(N)c(Br)cc(Br)c3o2)cc1 [Compound 6, 5-Amino-2-(4-aminophenyl)-6,8-dibromo-4H-1-benzopyran-4-one]",27,–
"Nc1ccc(-c2cc(=O)c3c(N)c(F)ccc3o2)cc1 [Compound 8, 5-Amino-2-(4-aminophenyl)-6-fluoro-4H-1-benzopyran-4-one]",0.14,–
"Nc1ccc(-c2cc(=O)c3c(N)ccc(F)c3o2)cc1 [Compound 10, 5-Amino-2-(4-aminophenyl)-8-fluoro-4H-1-benzopyran-4-one]",0.25,21
"NCCCNc1ccc(-c2cc(=O)c3c(N)ccc(F)c3o2)cc1 [Compound 20, 5-Amino-2-[4-[(3-aminopropyl)amino]phenyl]-8-fluoro-4H-1-benzopyran-4-one]",0.094,9.3
"NCCCNc1ccc(-c2cc(=O)c3c(N)c(F)cc(F)c3o2)cc1F [Compound 30, 5-Amino-2-[4-(3-aminopropylamino)-3-fluorophenyl]-6,8-difluoro-4H-1-benzopyran-4-one]",0.039,14
"Nc1c(Cl)cc(-c2cc(=O)c3c(N)c(F)cc(F)c3o2)cc1Cl [Compound 35, 5-Amino-2-(4-amino-3,5-dichlorophenyl)-6,8-difluoro-4H-1-benzopyran-4-one]",0.17,–
"Nc1c(Br)cc(-c2cc(=O)c3c(N)c(F)cc(F)c3o2)cc1Br [Compound 36, 5-Amino-2-(4-amino-3,5-dibromophenyl)-6,8-difluoro-4H-1-benzopyran-4-one]",0.61,–
"CN(C)c1ccc(-c2cc(=O)c3c(N)c(F)cc(F)c3o2)cc1F [Compound 38, 5-Amino-6,8-difluoro-2-[4-(N,N-dimethylamino)-3-fluorophenyl]-4H-1-benzopyran-4-one]",–,12
"CN(C)CCNc1ccc(-c2cc(=O)c3c(N)c(F)cc(F)c3o2)cc1F [Compound 40, 5-Amino-2-[4-[2-(N',N'-dimethylamino)ethylamino]-3-fluorophenyl]-6,8-difluoro-4H-1-benzopyran-4-one]",0.23,–
"Nc1c(F)cc(F)c2oc(-c3ccc(NCCN4CCCC4)c(F)c3)cc(=O)c12 [Compound 41, 5-Amino-6,8-difluoro-2-[3-fluoro-4-[2-(pyrrolidin-1-yl)ethylamino]phenyl]-4H-1-benzopyran-4-one]",–,5
"Nc1c(F)cc(F)c2oc(-c3ccc(NCCN4CCOCC4)c(F)c3)cc(=O)c12 [Compound 42, 5-Amino-6,8-difluoro-2-[3-fluoro-4-(2-morpholinoethylamino)phenyl]-4H-1-benzopyran-4-one]",6.1,–
"CCOC(=O)CNc1ccc(-c2cc(=O)c3c(N)c(F)cc(F)c3o2)cc1F [Compound 44, 5-Amino-6,8-difluoro-2-(4-ethyoxycarbonylmethylamino-3-fluorophenyl)-4H-1-benzopyran-4-one]",0.36,–
"COCCCNc1ccc(-c2cc(=O)c3c(N)c(F)cc(F)c3o2)cc1F [Compound 46, 5-Amino-6,8-difluoro-2-[3-fluoro-4-(3-methoxypropylamino)phenyl]-4H-1-benzopyran-4-one]",0.11,–
"Nc1c(F)cc(F)c2oc(-c3ccc(NCCCCCCn4ccnc4)c(F)c3)cc(=O)c12 [Compound 52, 5-Amino-6,8-difluoro-2-[3-fluoro-4-[6-(imidazol-1-yl)hexylamino]phenyl]-4H-1-benzopyran-4-one]",2,4.4
"CN(C)CCCCCCNc1ccc(-c2cc(=O)c3c(N)c(F)cc(F)c3o2)cc1F [Compound 53, 5-Amino-6,8-difluoro-2-[4-[6-(N',N'-dimethylamino)hexylamino]-3-fluorophenyl]-4H-1-benzopyran-4-one]",6.2,6.8

Structure (SMILES),IC50 [1] [µM],IC50 [2] [µM]
"Nc1c(F)cc(F)c2oc(-c3ccc(NCCCCCCN4CCCC4)c(F)c3)cc(=O)c12 [Compound 54, 5-Amino-6,8-difluoro-2-[3-fluoro-4-[6-(pyrrolidin-1-yl)hexylamino]phenyl]-4H-1-benzopyran-4-one]",5.9,6.1
"Nc1c(F)cc(F)c2oc(-c3ccc(NCCCCCCN4CCOCC4)c(F)c3)cc(=O)c12 [Compound 55, 5-Amino-6,8-difluoro-2-[3-fluoro-4-(6-morpholinohexylamino)phenyl]-4H-1-benzopyran-4-one]",–,11
"CCOC(=O)CCCCCNc1ccc(-c2cc(=O)c3c(N)c(F)cc(F)c3o2)cc1F [Compound 56, 5-Amino-6,8-difluoro-2-[4-(5-ethoxycarbonylpentylamino)-3-fluorophenyl]-4H-1-benzopyran-4-one]",0.91,–
"Nc1c(F)cc(F)c2oc(-c3ccc(NCCCCCC(=O)O)c(F)c3)cc(=O)c12 [Compound 57, Sodium salt of 5-amino-2-[4-(5-carboxypentylamino)-3-fluorophenyl]-6,8-difluoro-4H-1-benzopyran-4-one]",0.73,–
"CCCCCCNc1c(F)cc(F)c2oc(-c3ccc(N(C)C)c(F)c3)cc(=O)c12 [Compound 58, 6,8-Difluoro-2-[4-(N,N-dimethyl)amino-3-fluorophenyl]-5-hexylamino-4H-1-benzopyran-4-one]",0.34,–
"CN(C)c1ccc(-c2cc(=O)c3c(NCCCCCCO)c(F)cc(F)c3o2)cc1F [Compound 60, 6,8-Difluoro-2-[4-(N,N-dimethyl)amino-3-fluorophenyl]-5-(6-hydroxyhexylamino)-4H-l-benzopyran-4-one]",0.34,–
"COCCCCCCNc1c(F)cc(F)c2oc(-c3ccc(N(C)C)c(F)c3)cc(=O)c12 [Compound 61, 6,8-Difluoro-2-[4-(N,N-dimethyl)amino-3-fluorophenyl]-5-(6-methoxyhexylamino)-4H-1-benzopyran-4-one]",0.63,–
"CN(C)CCCCCCNc1c(F)cc(F)c2oc(-c3ccc(N(C)C)c(F)c3)cc(=O)c12 [Compound 62, 6,8-Difluoro-2-[4-(N,N-dimethyl)amino-3-fluorophenyl]-5-[6-(N',N'-dimethylamino)hexylamino]-4H-1-benzopyran-4-one]",–,7.1
"CN(C)c1ccc(-c2cc(=O)c3c(NCCCCCCN4CCCC4)c(F)cc(F)c3o2)cc1F [Compound 63, 6,8-Difluoro-2-[4-(N,N-dimethyl)amino-3-fluorophenyl]-5-[6-(pyrrolidin-1-yl)hexylamino]-4H-1-benzopyran-4-one]",–,7
"CN(C)c1ccc(-c2cc(=O)c3c(NCCCCCCn4ccnc4)c(F)cc(F)c3o2)cc1F [Compound 64, 6,8-Difluoro-2-[4-(N,N-dimethyl)amino-3-fluorophenyl]-5-[6-(imidazol-1-yl)hexylamino]-4H-1-benzopyran-4-one]",–,3
"CN(C)c1ccc(-c2cc(=O)c3c(NCCCCCCN)c(F)cc(F)c3o2)cc1F [Compound 65, 5-(6-Aminohexylamino)-6,8-difluoro-2-[4-(N,N-dimethyl)amino-3-fluorophenyl]-4H-1-benzopyran-4-one]",–,7
"CCCCCCNc1c(F)cc(F)c2oc(-c3ccc(N)c(F)c3)cc(=O)c12 [Compound 67, 2-(4-Amino-3-fluorophenyl)-6,8-difluoro-5-hexylamino-4H-1-benzopyran-4-one]",–,9.4
"CC(Cl)CCCCNc1c(F)cc(F)c2oc(-c3ccc(N)c(F)c3)cc(=O)c12 (stereo not shown) [Compound 69, 2-(4-Amino-3-fluorophenyl)-5-(5-chlorohexylamino)-6,8-difluoro-4H-1-benzopyran-4-one]",6,–
"CC(C)CCCNc1c(F)cc(F)c2oc(-c3ccc(N)c(F)c3)cc(=O)c12 [Compound 71, 2-(4-Amino-3-fluorophenyl)-6,8-difluoro-5-(4-methylpentylamino)-4H-1-benzopyran-4-one]",–,12
"CCCCCCNc1c(F)cc(F)c2oc(-c3ccc(NCC(=O)O)c(F)c3)cc(=O)c12 [Compound 75, 2-(4-Carboxymethylamino-3-fluorophenyl)-6,8-difluoro-5-hexylamino-4H-1-benzopyran-4-one]",–,16
"C=CCCCCNc1c(F)cc(F)c2oc(-c3ccc(NC)c(F)c3)cc(=O)c12 [Compound 77, 6,8-Difluoro-2-(3-fluoro-4-methylaminophenyl)-5-(5-hexenylamino)-4H-1-benzopyran-4-one]",–,11
"CCCCCNc1c(F)cc(F)c2oc(-c3ccc(NCCCN)c(F)c3)cc(=O)c12 [Compound 79, 2-[4-(3-Aminopropylamino)-3-fluorophenyl]-6,8-difluoro-5-pentylamino-4H-1-benzopyran-4-one]",–,7.5
